Data published in paper PMC5298231, “The Malaria Parasite's Lactate Transporter PfFNT Is the Target of Antiplasmodial Compounds Identified in Whole Cell Phenotypic Screens” (PLoS Pathogens, 2017).

System: MMV007839-selected culture B (PfFNT Gly107Ser)
Experiment: Parasite proliferation assay, MMV007839-selected culture B
Format: cell-based, Plasmodium falciparum
Settings: MMV007839-selected culture B; mean ± SEM; read-out: IC50 value, growth inhibition
Method: Parasite proliferation was measured in 96-well plates using a fluorescent DNA-intercalating dye. The assays were initiated with erythrocytes infected with predominantly ring-stage parasites, and the starting parasitaemia was 0.5–1% and the haematocrit was 1%.
For MMV007839-selected culture A, the drug concentration was increased by 5 nM increments on Day 18, Day 21, and every two days thereafter. […] The cultures were provided with fresh medium and blood and diluted to reduce the parasitaemia as needed.

COc1ccc2c(c1)OC(O)(C(F)(F)C(F)(F)F)CC2=O (stereo not shown) [MMV007839]
IC50: 37.5 ± 2.7 µM
